One series has as its system P2X3. As to conditions: oral; cited from earlier work.
For series [1] the following is noted: preclinical models; cited from earlier work.
For series [2] the following is noted: local delivery; cited from earlier work.
The nature of series [3]: Dissolution in Fasted State Simulated Gastric Fluid (FaSSGF), manual experiment, 37 °C. As to conditions: for Solubility: 37 °C. Type of series: physicochemical. The procedure: The dissolution in Fasted State Simulated Gastric Fluid (FaSSGF) of mesylate salt Form 2 of the compound A of Example 2 and esylate salt Form 1 of Example 6 in comparison with the free base Form A and with other salts was tested by means of manual experiment. The medium for simulated oral fluids was FaSSGF obtained from Biorelevant.com Ltd. The experiments were conducted for 60 minutes at 37 °C.
General preparation of salts: in a round-bottomed flask, 200 mg of compound A free base Form A according to Example 1 (0.52 mmol) were suspended in 5 ml of solvent and stirred at RT. Acetone was employed for bromide, ethanedisulfonate, malonate, sulfate, saccharinate, tosylate, orotate, besylate, hemisulfate, phosphate and tartrate salts; water was employed for chloride salt; ethyl formate was employed for maleate, oxalate, gentisicate, fumarate and mandelate salts; tetrahydrofuran was employed for camphorsulfonate and pamoate salts; isopropyl acetate was employed for 4-hydroxybenzoate and methanol for camphorate salt. The corresponding acid was added under stirring in equimolar amount (except for hemisulfate, added in 0.5 molar amount). After 1 hour the crystalline solid was isolated by filtration, washed with the corresponding solvent (2×1 ml) and dried under nitrogen for 2 hours.
The quantification of the dissolved amount was done by LC/UV system at different checkpoints up to 60 minutes. The saturation solution concentration was around 25-30 mg/ml. […] In a second experiment, the quantification was repeated with saturation solution concentration 170 mg/ml for the mesylate salt Form 2 and 100 mg/ml for the esylate salt Form 1. The results are reported in tables 8A, 8B, 8C, 8D and FIG. 28.

Series [4] can be described thus: Comparative stability at 40 °C and 75% RH at open conditions (UPLC/UV and XRPD). The class given is physicochemical. As to conditions: 40 °C/75% RH open. The procedure: In a second experiment, approximately 100 mg of compound A mesylate salt Form 2 according to Example 2, free base Form A according to Example 1 and esylate salt Form 1 according to Example 6 were stored in three open amber glass vials covered with filter paper to simulate open conditions. The samples were stored in a stability chamber at 75% RH and 40 °C to compare their stability. At the time points 0, 28, 56, 84 days the corresponding samples were removed from the stability chambers. After conditioning at RT, the samples were analyzed by UPLC/UV and XRPD.

The nature of series [5]: Two-sector dissolution study (FaSSGF then FaSSIF), parachute effect. Type of series: physicochemical. Particulars: third experiment. On the procedure: The dissolution behaviour of mesylate salt Form 2 of compound A was studied in a two-sector model in comparison with free base Form A to evaluate a possible “spring-parachute effect”.
The parachute effect is observable in two-sector dissolution studies. A test compound is incubated with FaSSGF and its concentration is monitored over time. FaSSIF is then added to the solution whilst continuing the monitoring. The period of time in which the test compound remains in solution without or before precipitating refers to the supersaturation time and represents the parachute effect.
The experiment was conducted using DISS Profiler 6 Channel Pion. The free base Form A and mesylate salt Form 2 of compound A were each incubated in 8 ml of FaSSGF (pH 1.6) for 20 minutes at the concentration of 350 mg/250 ml. 16 ml of FaSSIF concentrated 1.5× (pH 6.5) was added with an incubation time of 180 minutes. The resulting target pH should be approximately 5-6. The experiment was conducted at 37 °C. The entire dissolution profile was monitored until the end of the experiment to evaluate a possible parachute effect, its duration and to evaluate the maximum solubility reached after the addition of FaSSIF.
A second experiment was conducted, with an additional step of adjusting the pH to 6.5 after FaSSIF addition. Both free base Form A and mesylate salt Form 2 of compound A were tested.
A third experiment was conducted on esylate salt Form 1 of compound A, using the same protocol of the second experiment, with free base Form A and mesylate salt Form 2 of compound A as controls. The experiment was aimed at evaluating comparatively a possible parachute effect of the esylate salt and its duration. Precipitation of the free base was observed after roughly 20 minutes, while precipitation of the esylate salt and mesylate salt were observed after 30 and 40 minutes respectively.

Series [6] can be described thus: Dynamic vapour sorption (DVS), hygroscopicity. Type of series: physicochemical. Particulars: between 20% and 80% RH. On the procedure:
Moisture sorption/desorption data were collected on a TA Instruments Vapor Sorption Analyzer Q5000SA.
First step: sorption data was collected in the range 40% to 90% relative humidity (RH).
Second Step: desorption, sorption and desorption data were collected over a range of 0% to 90% RH at 10% RH intervals under a nitrogen purge. Samples were not dried prior to analysis. Equilibrium criteria used for analysis were less than 0.100% weight change in 20 minutes, with a maximum equilibration time of 1 hour if the weight criterion was not met. Data were not corrected for the initial moisture content of the samples. NaBr was used as humidity verification.
Moisture sorption/desorption data were also collected on a ProUmid SnS 23 equipped with a 23 autosampler following Method 1.
In the first step sorption data was collected in the range 0% to 90% RH. Samples were not dried prior to analysis.
In the second Step desorption, sorption and desorption data were collected over a range of 0% to 90% (RH) at 10% RH intervals under a nitrogen purge. Data were not corrected for the initial moisture content of the samples.

The mark [7] stands for this setting: second experiment (saturation conc. 170 mg/ml mesylate, 100 mg/ml esylate), 0 min.
The mark [8] stands for this setting: first experiment (saturation conc. around 25-30 mg/ml), 5 min.

Converted amounts (≈) assume the structure as drawn. “Also recorded” adds a separate entry of the source. Counter-ions that a name gives are not always drawn.

For orientation: Solubility means the dissolved amount per volume that the medium holds. A higher Solubility goes with much dissolved substance.

Take `COc1cc(C(C)C)c(Oc2cnc(N)nc2N)cc1S(N)(=O)=O` [AF-219]: the “Hypersensitivity of the cough reflex” value in the series on P2X3 is “dramatically reduced”.

As for `Nc1ncnc2c1ncn2[C@@H]1O[C@H](COP(=O)(O)OP(=O)(O)OP(=O)(O)O)[C@@H](O)[C@H]1O` [ATP, Adenosine 5-TriPhosphate], the “Citric acid-evoked and histamine-evoked cough” value in series [1] is “enhances citric acid-evoked and histamine-evoked cough”. The Cough and bronchospasm result in series [2] is “initiates cough and bronchospasm”.

`COc1cc(-c2ccc(F)cn2)cc2c(N[C@H](C)c3noc(C)n3)ncnc12` [besylate]: the Solubility was 1010 µg/mL in series [3] (setting [7]) and 21840 µg/mL in series [3] (second experiment, 60 min).

Turning to `COc1cc(-c2ccc(F)cn2)cc2c(N[C@H](C)c3noc(C)n3)ncnc12` [bromide], the Solubility in series [3] (setting [7]) was 720 µg/mL; in series [3] (second experiment, 15 min), 2520 µg/mL; in series [3] (second experiment, 60 min), 2880 µg/mL.

For the compound `COc1cc(-c2ccc(F)cn2)cc2c(N[C@H](C)c3noc(C)n3)ncnc12` [camphorsulfonate], the Solubility is 510 µg/mL in series [3] (setting [7]); 10510 µg/mL in series [3] (second experiment, 15 min); 11840 µg/mL in series [3] (second experiment, 30 min); 13450 µg/mL in series [3] (second experiment, 60 min).

`COc1cc(-c2ccc(F)cn2)cc2c(N[C@H](C)c3noc(C)n3)ncnc12` [chloride]: the Solubility in series [3] (setting [7]) is 690 µg/mL; in series [3] (second experiment, 15 min), 8630 µg/mL; in series [3] (second experiment, 60 min) it was 10870 µg/mL.

On to `COc1cc(-c2ccc(F)cn2)cc2c(N[C@H](C)c3noc(C)n3)ncnc12` [esylate salt Form 1, (R)-6-(5-fluoropyridin-2-yl)-8-methoxy-N-(1-(5-methyl-1,2,4-oxadiazol-3-yl)ethyl)quinazolin-4-amine], for which the Stability entry in series [4] (84 days) is listed as “surprisingly good stability during stressed storage”. In series [4] (0 days), the “% area main peak (LC/UV)” value is listed as 99.9 % area. Further, the Solubility in series [3] (first experiment (saturation conc. around 25-30 mg/ml), 5 min, listed as esylate Form 1, 5 min) was 24270 µg/mL; in series [3] (first experiment, 10 min, listed as esylate Form 1, 10 min) it was 24740 µg/mL; in series [3] (first experiment, 20 min, listed as esylate Form 1, 20 min) it was 24870 µg/mL; in series [3] (first experiment, 40 min, listed as esylate Form 1, 40 min) it was 24760 µg/mL; in series [3] (first experiment, 60 min), ≥ 25000 µg/mL; in series [3] (first experiment, 60 min, listed as esylate Form 1, 60 min) it was 24590 µg/mL. In addition, the Solubility in series [3] (second experiment, 30 min, listed as esylate Form 1, 30 min) is 61300 µg/mL; in series [3] (second experiment, 60 min, listed as esylate Form 1, 60 min), 68460 µg/mL. For the same compound, the “Solubility compared to free base Form A” value in series [3] (60 minutes) was “consistently higher solubility than the free base Form A during the 60 minutes time”. Besides, in series [3] (first experiment, saturation conc. around 25-30 mg/ml), the Dissolution entry is “completely dissolved”. Also, the “Duration of the parachute effect compared to free base Form A” value in series [5] is given as “longer duration of the parachute effect”. Besides, the Time of precipitation in series [5] (protocol of the second experiment) turned out to be 30 min.

With `COc1cc(-c2ccc(F)cn2)cc2c(N[C@H](C)c3noc(C)n3)ncnc12` [ethanedisulfonate], the Solubility in series [3] (setting [7]) was 490 µg/mL; in series [3] (second experiment, 60 min), 1060 µg/mL.

On to `COc1cc(-c2ccc(F)cn2)cc2c(N[C@H](C)c3noc(C)n3)ncnc12` [fumarate], for which the Solubility in series [3] (setting [8]) was 3290 µg/mL; in series [3] (first experiment, 10 min) it was 3360 µg/mL; in series [3] (first experiment, 20 min), 3350 µg/mL; in series [3] (first experiment, 40 min), 3610 µg/mL; in series [3] (first experiment, 60 min) it was 3580 µg/mL; in series [3] (setting [7]), 550 µg/mL. Besides, the Solubility in series [3] (second experiment, 15 min) was 4980 µg/mL; in series [3] (second experiment, 30 min), 5760 µg/mL; in series [3] (second experiment, 60 min), 5890 µg/mL.

As for `COc1cc(-c2ccc(F)cn2)cc2c(N[C@H](C)c3noc(C)n3)ncnc12` [mandelate], the Solubility in series [3] (setting [7]) is 1280 µg/mL (≈ 3370 µM); in series [3] (second experiment, 15 min), 10880 µg/mL (≈ 28600 µM); in series [3] (second experiment, 30 min) it was 9300 µg/mL (≈ 24400 µM); in series [3] (second experiment, 60 min), 10990 µg/mL (≈ 28900 µM).

Consider `COc1cc(-c2ccc(F)cn2)cc2c(N[C@H](C)c3noc(C)n3)ncnc12` [mesylate salt Form 6, (R)-6-(5-fluoropyridin-2-yl)-8-methoxy-N-(1-(5-methyl-1,2,4-oxadiazol-3-yl)ethyl)quinazolin-4-amine], for which, in series [6], the Hygroscopicity result is “No hygroscopicity was noted; also recorded: substantially no hygroscopicity” and the Total water uptake is given as 0.3%.

Consider `COc1cc(-c2ccc(F)cn2)cc2c(N[C@H](C)c3noc(C)n3)ncnc12` [oxalate], for which the Solubility was 90 µg/mL in series [3] (setting [8]); 90 µg/mL in series [3] (first experiment, 10 min); 80 µg/mL in series [3] (first experiment, 20 min); 90 µg/mL in series [3] (first experiment, 40 min); 90 µg/mL in series [3] (first experiment, 60 min); 1730 µg/mL in series [3] (setting [7]). The Solubility in series [3] (second experiment, 15 min) was 10710 µg/mL; in series [3] (second experiment, 30 min) it was 11700 µg/mL; in series [3] (second experiment, 60 min) it was 13870 µg/mL.

As to `COc1cc(-c2ccc(F)cn2)cc2c(N[C@H](C)c3noc(C)n3)ncnc12` [pamoate], the Solubility is 30 µg/mL in series [3] (setting [7]); 4890 µg/mL in series [3] (second experiment, 15 min); 6520 µg/mL in series [3] (second experiment, 60 min).

Take `COc1cc(-c2ccc(F)cn2)cc2c(N[C@H](C)c3noc(C)n3)ncnc12` [phosphate]: the Solubility is 210 µg/mL in series [3] (setting [7]); 15210 µg/mL in series [3] (second experiment, 15 min); 14850 µg/mL in series [3] (second experiment, 30 min); 14320 µg/mL in series [3] (second experiment, 60 min).

Consider `COc1cc(-c2ccc(F)cn2)cc2c(N[C@H](C)c3noc(C)n3)ncnc12` [saccharinate], for which the Solubility was 900 µg/mL (≈ 2370 µM) in series [3] (setting [8]); 1030 µg/mL (≈ 2710 µM) in series [3] (first experiment, 10 min); 1090 µg/mL (≈ 2870 µM) in series [3] (first experiment, 20 min); 1080 µg/mL (≈ 2840 µM) in series [3] (first experiment, 40 min); 1020 µg/mL (≈ 2680 µM) in series [3] (first experiment, 60 min); 430 µg/mL (≈ 1130 µM) in series [3] (setting [7]). The Solubility in series [3] (second experiment, 15 min) is 800 µg/mL (≈ 2100 µM); in series [3] (second experiment, 30 min), 870 µg/mL (≈ 2290 µM); in series [3] (second experiment, 60 min) it was 830 µg/mL (≈ 2180 µM).

Consider `COc1cc(-c2ccc(F)cn2)cc2c(N[C@H](C)c3noc(C)n3)ncnc12` [tosylate], for which the Solubility in series [3] (setting [7]) was 610 µg/mL; in series [3] (second experiment, 15 min), 4670 µg/mL; in series [3] (second experiment, 30 min), 4860 µg/mL; in series [3] (second experiment, 60 min), 4970 µg/mL.

Values taken from patent US20260356826A1, “SALTS OF AMINO QUINAZOLINE DERIVATIVES” (CHIESI FARMACEUTICI S.P.A., priority 2023, published 2026).
